Laboratory results: PMC8098127, “A new crystal form of GABARAPL2” (Acta Crystallographica. Section F, Structural Biology …, 2021)

Molecular target: T1, GABARAPL2 (Homo sapiens, UniProt P60520)
T1 construct: GST (N, cleaved yes); made in house; host or cells: E. coli BL21 (DE3)
Experiment: Surface plasmon resonance (SPR) binding of GABARAPL2 to captured NDP52 I133W LIR peptide, steady state
Conditions: full-length GABARAPL2 (C-terminal Phe117 present) injected over N-terminal LC-biotin peptide on streptavidin chip, BIAcore S200, 10 mM HEPES, 150 mM NaCl, 3.4 mM EDTA, 0.05% Tween pH 7.4, threefold, ten-step dilution series, injected 160 s, 800 s dissociation, steady-state fit, report point 145 s after injection
Method: GABARAPL2 was expressed and purified as described previously (Muhlinen et al., 2012[▸]). Briefly, Escherichia coli strain BL21 (DE3) cells were transformed with a pETM-30 plasmid harbouring the GABARAPL2 gene (Table 1 ▸). The cells were grown in 1 l Luria Broth (LB) medium supplemented with 100 mg l^−1 kanamycin at 37°C with agitation. Gene expression was induced when the cell density (OD600) reached approximately 0.6 by the addition of […] isopropyl β-D-1-thiogalactopyranoside (IPTG) for 3 h. Cell pellets were obtained by centrifugation at 5000g for 10 min and were lysed by sonication in lysis buffer (50 mM Tris pH 8.0, 150 mM NaCl, 1 mM EDTA) at 4°C. The lysate was clarified by centrifugation at 45 000g for 45 min and was filtered through a […] filter and immobilized on a column containing 1 ml Gluthathione Sepharose 4B resin (GE Life Sciences). GABARAPL2 was cleaved from the GST fusion protein on-column with 200 µg TEV protease and 0.5 mM TCEP overnight at 4°C. […]
Surface plasmon resonance (SPR) binding assays were performed using a BIAcore S200 in SPR buffer consisting of 10 mM HEPES, 150 mM NaCl, 3.4 mM EDTA, 0.05% Tween pH 7.4. […] The sensorgrams were analysed at steady state using a report point 145 s after injection, averaging the response over 5 s. […]

T1 sequence (P60520 with tags, fused parts or gaps): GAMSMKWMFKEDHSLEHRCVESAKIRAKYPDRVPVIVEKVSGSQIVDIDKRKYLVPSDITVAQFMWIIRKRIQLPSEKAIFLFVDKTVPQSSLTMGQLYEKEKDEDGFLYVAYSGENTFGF

CC(C)C[C@H](NC(=O)[C@H](Cc1c[nH]c2ccccc12)NC(=O)[C@H](CC(=O)O)NC(=O)[C@H](CCC(=O)O)NC(=O)[C@H](CCC(=O)O)NC(=O)[C@H](CC(N)=O)NC(=O)[C@@H](N)CCC(=O)O)C(=O)N[C@H](C(=O)N[C@H](C(=O)N[C@H](C(=O)N[C@H](C(=O)N[C@@H](CCC(N)=O)C(=O)NCC(=O)N[C@@H](CCC(=O)O)C(=O)O)[C@@H](C)O)[C@@H](C)O)C(C)C)C(C)C [NDP52 I133W LIR peptide, ENEEDWLVVTTQGE]
Kd (SPR Experiment 1): 4.85 µM
Kd (SPR Experiment 2): 5.07 µM
